# Measurements published in patent US20240369511A1, “INTEGRATED ELECTROCHEMICAL APTASENSORS FOR MEASURING CELL DEATH AND CYTOKINE ACTIVITY FROM INTACT TISSUE SAMPLES” (University of Washington, priority 2023, published 2024).
# Several values for one entry are separate records, joined by “and”; a condition that tells them apart may be missing. Equal values may be shown once.
# B1: CytC aptamer (SEQ ID NO:1) (ssDNA)
# DNA: CCGTGTCTGGGGCCGACCGGCGCATTGGGTACGTTGTTGC
# modifications: 5' ThioMC6-D (disulfide C6 thiol, attached to gold electrode); 3' amino modifier conjugated to methylene blue
# Tests used:
# CytC [1] = biological target: T1, CytC (Homo sapiens, UniProt P99999); experiment: CytC aptasensor calibration curve by square wave voltammetry; type: binding
# T1 construct: purchased RayBiotech Life, Inc (GA, USA)
# T1 sequence (P99999 whole entry): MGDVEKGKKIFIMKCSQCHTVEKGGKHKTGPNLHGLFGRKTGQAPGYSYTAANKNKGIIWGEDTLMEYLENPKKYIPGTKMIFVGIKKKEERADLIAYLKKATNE
# Text: (§1) Characterization of the electrochemical aptamer-based sensor. An electrochemical sensor with a modified aptamer that recognizes CytC was developed, enabling real-time monitoring of CytC increases in the supernatant due to cell death in cuboids during drug screening. The aptamer sequences were modified with a redox-active molecule, methylene blue (MB), at the distal end of the aptamer. As shown at FIG. 2A, the binding of the CytC target induces a rapid and reversible conformational change in the aptamer, increasing the electron transfer (eT) rate between the MB reporter and the WE surface. This change in eT results in a measurable variation in redox current, easily detectable using square wave voltammetry (SWV). Changes in peak current height were monitored, which correlates with the proximity of the MB redox tag to the electrode. The performance of the aptasensors in response to varying concentrations of CytC (ranging from 1 to 30,000 ng/mL) is presented at FIG. 2B. At a recording frequency of 50 Hz, the peak current height of the sensors decreases as the CytC concentration increases.
# Electrochemical signal measurement. All the electrochemical measurements were performed using a Digi-Ivy potentiostat (DY-2219, Digi-Ivy, Austin, TX, USA). For the SWV measurements, the sensors were integrated from 0.0 to −0.5 V (versus Ag/AgCl) with 40-mV amplitude and a voltage increment of 1 mV suitable frequency setting (ranging from 10 Hz to 1,000 Hz). A conventional three-electrode cell was used in electrodeposition, Ag/AgCl with 3M KCl as reference electrode, and platinum wire (0.05 mm diameter, Alfa Aesar, MA, USA) as counter electrode.
# Quantitative analysis and characterization of the Cyt C aptamer sensor. The CytC sensors were characterized in cultured medium DMEM-F12-10% FBS with spiked human CytC recombinant (reconstituted in PBS). The SWV measurement for aptasensors was scanned from −0.5 V to 0 V with 40-mV amplitude and a step potential of 1 mV. The frequency is 50 Hz and 1,000 Hz.
# CytC [2] = biological target: T1, CytC; experiment: Binding kinetics of the CytC aptasensor (temporal response, flow injection analysis)
# Text: Binding kinetics of the CytC aptasensor. The binding kinetics of aptamer-protein complexes were further evaluated. […] Next, the monomolecular dissociation rate constant (koff) was computed. The aptasensor platform was adapted for flow injection analysis under constant flow. The sensor platform was modified to incorporate an inlet and outlet loop injection system. With this setup, the different phases of aptamer-target interaction were able to be measured, including association, dissociation, and equilibrium. […] Initially, the aptamer remained unbound in the absence of the target, producing baseline levels of current. The introduction of the target initiated the association phase, which led to the occupation of aptamer binding sites. This phase continued until a steady-state or equilibrium point was attained. Subsequently, the semi-automated target removal initiated the dissociation phase of the aptamer-target complex. The continuous flow of the medium enabled the aptasensor to recover eventually, gradually returning to the baseline levels within approximately 12 hrs.
# Modify sensor platform to become injection analysis platform for characterization of binding kinetics. The existing platform was modified by introducing an additional PMMA layer to establish channels and the well layer altered to create a sealed chamber for flow injection. The PMMA layer (0.3 mm thick) was lined with 3M300LSE adhesive before being precisely cut using a CO2 laser. The culture medium was injected through tubing (Tygona, Cole-Parmer, IL, USA) connected to the injector loop at a 2.5 mL/min flow rate using a Fusion 200 syringe pump (Chemyx, Inc, TX, USA). Following a 5-minute equilibration period during which the sensors were exposed to continuous medium flow, CytC was introduced into the flow as the target compound.
# CytC [3] = biological target: T1, CytC; experiment: Selectivity of the CytC aptasensor against interferents and drugs; type: binding
# Method: Selectivity of the CytC aptasensor. Selectivity is a factor for the practical application of these sensors in tumor-on-a-chip models for drug screening. To assess the selectivity of the sensors, experiments were conducted in which the sensor's responses to CytC (100 ng/mL) vs. responses in the presence of other potentially interfering molecules (also at 100 ng/mL) were measured. Measurements were performed in a growth medium at 50 Hz.
# Ex-vivo monitoring of CytC from microdissected tumor tissues after drug treatment in culture using the aptasensor platform. The sensor platform's ability to quantify CytC secretion from cuboids was evaluated at different time points during an extended culture period (48 hrs). Cuboids from human U87 glioma cell-derived tumors grown in athymic nude mice were prepared. […] Next, the sensor platform's ability to measure CytC secretion from cuboids in response to exposure to cytotoxic drugs was evaluated. Initially, the baseline signal was measured with the encapsulated cuboids on the WE before exposing U87 cuboids to different concentrations of cisplatin (a cytotoxic chemotherapy drug, FIG. 5C), sepantronium bromide, (YM-155, a survivin inhibitor and potential anti-cancer drug, FIG. 5D), and mocetinostat (MOC, a histone deacetylases inhibitor cancer drug, FIG. 5E) for 48 hrs. […]
# [4] = test system: U87 glioma xenograft cuboids; experiment: Terminal SYTOX green dead stain fluorescence of cuboids; type: cell-based; settings: 48 hrs
# [5] = test system: U87 glioma xenograft cuboids; experiment: On-device aptasensor monitoring of CytC secretion from drug-treated cuboids; type: cell-based; settings: for CytC level vs control: 12 to 48 hrs
# Method: Ex-vivo monitoring of CytC from microdissected tumor tissues after drug treatment in culture using the aptasensor platform. The sensor platform's ability to quantify CytC secretion from cuboids was evaluated at different time points during an extended culture period (48 hrs). Cuboids from human U87 glioma cell-derived tumors grown in athymic nude mice were prepared. After overnight culture in a 96-well plate to allow recovery from tissue damage due to the cutting procedure, the cuboids were transferred onto the sensor platform for measurement. To prevent random adhesion of the cuboids to the sensor surface and improve the precise localization of CytC secretion detection, the cuboids were encapsulated in a hydrogel. They were mixed with hydrogel before transferring onto the sensors and immobilizing them to a restricted area just above the working electrode (FIGS. 5A-5B). […] Encapsulation of cells in hydrogels in close proximity to the WE also generates a more localized and distinguishable electrochemical response. Hydrogels can be used as a protective layer to ensure the long-term stability of aptasensors. A polysaccharide hydrogel (Cellink, Bioink, Boston, USA) that contains nanofibrillar cellulose and sodium alginate was used. […] It was also observed that the performance of the sensors remained unhindered regardless of the hydrogel concentration, apart from an extension of the reaction time to approximately 30 min. […] Next, the sensor platform's ability to measure CytC secretion from cuboids in response to exposure to cytotoxic drugs was evaluated. Initially, the baseline signal was measured with the encapsulated cuboids on the WE before exposing U87 cuboids to different concentrations of cisplatin (a cytotoxic chemotherapy drug, FIG. 5C), sepantronium bromide, (YM-155, a survivin inhibitor and potential anti-cancer drug, FIG. 5D), and mocetinostat (MOC, a histone deacetylases inhibitor cancer drug, FIG. 5E) for 48 hrs. […] These observations were consistent with fluorescence-based findings and agreed with the sensor-based responses. […]
# Cytochrome c (CytC) = Cytochrome c (CytC) (Homo sapiens, UniProt P99999 P99999:2-105); experiment: apparent KD, electrochemical aptamer sensor on Au, square wave voltammetry 50 Hz, Langmuir-Hill fit; text also prints 515±130 μM (6.19 ng/mL corresponds to abou); settings: tags: RayBiotech Life recombinant human cytochrome c; label: 3' methylene blue
# Chain of Cytochrome c (CytC) (P99999 2-105, one chain of several): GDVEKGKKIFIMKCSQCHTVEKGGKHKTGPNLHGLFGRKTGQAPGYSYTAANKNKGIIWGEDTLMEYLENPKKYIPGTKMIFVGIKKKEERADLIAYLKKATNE
# Text: as §1
molecule,measurement,setting,value
"5′-/ThioMC6-D/CC GTGTCTGGGGCCGACCGGCGCATTGGGTACGTTGTTGC/AmMO/-3′ (DNA CCGTGTCTGGGGCCGACCGGCGCATTGGGTACGTTGTTGC; chemistry not fully specified) [CytC aptasensor, DNA aptamer recognizing cytochrome C, modified with methylene blue redox reporter, immobilized on gold working electrode]",detectable relevant concentrations,CytC [1]; 50 Hz,up to 3.32 μM
same,dynamic range,CytC [1]; 50 Hz,"up to 39,580 ng/mL"
same,"apparent dissociation constant, KD","CytC [1]; calibration curve at 50 Hz, nonlinear regression fit to Langmuir-Hill isotherm",6.19 ± 1.57 ng/mL and ~6 ng/mL
same,time to return to baseline (dissociation),CytC [2],12 h
same,response time to target,"CytC [2]; after addition of 1,000 ng/ml CytC, SWV 50 Hz",≤ 100 s
same,time to return to baseline levels (dissociation),CytC [2]; continuous flow of medium after target removal,approximately 12 hrs
same,signal gain for CytC vs interfering molecules,"CytC [3]; CytC 100 ng/mL vs FGF, EGF, IL-2, BSA at 100 ng/mL, growth medium, 50 Hz",higher signal gain
same,signal gain for CytC vs drugs used for treatment,"CytC [3]; CytC 100 and 2000 ng/mL vs DMSO, MOC, FOLFOX, Cisplatin, Staurosporine, YM-155, culture medium, 50 Hz, 1,000 Hz, KDM",higher signal gain
"Nc1ccccc1NC(=O)c1ccc(CNc2nccc(-c3cccnc3)n2)cc1 [MOC, mocetinostat]",SG dead stain fluorescence vs DMSO control,[4]; 10 μM MOC,slightly elevated SG dead stain fluorescence
same,CytC production rate vs DMSO control,"[5]; 10 μM MOC, 48 hrs, not statistically significant",higher average CytC production rate than the DMSO control
N.N.[Cl][Pt][Cl] [cisplatin],SG dead stain fluorescence vs control,[4]; 30 μM cisplatin,higher SG dead stain fluorescence
same,SG dead stain fluorescence vs control,[4]; 100 μM cisplatin,higher SG dead stain fluorescence
same,CytC level vs control,[5]; 30 μM cisplatin,higher CytC level compared to the control
same,CytC level vs control,[5]; 100 μM cisplatin,highest levels of CytC
B1,binding result,Cytochrome c (CytC),binds
